According to publication PMC8621101, “Inhibition of XPO-1 Mediated Nuclear Export through the Michael-Acceptor Character of Chalcones” (Pharmaceuticals, 2021):
“And” between values parts separate entries of the source, which are not always exact repeats. Identical values can stand only once.

Experiments:
[1] = tested on: DND-41 cells; experiment: Cell proliferation assay (IncuCyte confluence), DND-41; format: cell-based; conditions: DND41; DND-41 acute lymphoblastic leukemia; 72 h; mean of two independent experiments ± SEM; read-out: IC50 antiproliferative activity DND-41
Protocol: (§1) Cancer cell lines HCT-116, NCI-H460, HL-60, K-562 and Z-138 were acquired from the American Type Culture Collection (ATCC, Manassas, VA, USA). The DND-41 cell line was purchased from the Deutsche Sammlung von Mikroorganismen und Zellkulturen (DSMZ Leibniz-Institut, Brunswick, Germany), and the HAP-1 cell line was ordered from Horizon Discovery (Horizon Discovery Group, Water Beach, UK). All cell lines were cultured as recommended by the suppliers. Culture media were purchased from Gibco Life Technologies and supplemented with 10% fetal bovine serum (HyClone, GE Healthcare Life Sciences, Chicago, Illinois, USA).
(§2) Adherent cell lines HCT-116, NCI-H460 and Hap-1 cells were seeded at a density between 500 and 1500 cells per well in 384-well tissue culture plates (Greiner). After overnight incubation, cells were treated with different concentrations of the test compounds. Suspension cell lines HL-60, K-562, Z-138 and DND-41 were seeded at densities ranging from 2500 to 5500 cells per well in 384-well culture plates containing the test compounds at the same concentration points.

[2] = target: T1, XPO1 (Homo sapiens, UniProt O14980); experiment: XPO1 phenotypic reporter assay in HeLa NLSSV40-AcGFP-NESPKI cells; format: cell-based; conditions: HeLa GFP reporter cell line; 2 h treatment; mean ± SEM of two independent experiments; read-out: XPO1 inhibition IC50
T1 construct: the compounds were assayed in a reporter cell line based on the subcellular localization of a XPO1-dependent GFP reporter cargo protein; endogenous in cells; host or cells: HeLa cells stably transfected with the NLSSV40-AcGFP-NESPKI reporter (only the reporter cargo is transfected, not XPO1)
Protocol: Stably transfected HeLa NLSSV40-AcGFP-NESPKI were cultured as described in Vercruysse et al.
To study the XPO1-mediated nuclear export, stably transfected HeLa NLSSV40-AcGFP-NESPKI reporter cells were seeded at 8000 cells per well in 96-well all clear tissue culture plates (TPP). After overnight incubation, cells were treated with different doses of compound or solvent (DMSO) for 2 h and then fixed and counterstained with DAPI. Fluorescence was read on an ArrayScan XTI High Content Reader (Thermo Fisher Scientific, Waltham, MA, USA). Nuclear and cytoplasmic compartments were segmented and their average pixel intensities in the green channel were quantitated employing the HCS Studio software. Genedata Screener software was used for dose-response curve fitting, and calculation of EC50 values was based on the percentage of cells having a predominant nuclear localisation (ratio of nuclear to cytoplasmic signal equal or above 1.4) of the reporter construct. Compounds were tested in two independent experiments and represented as mean ± SEM.

[3] = tested on: panel of cancer cell lines; experiment: Antiproliferative activity, panel of cancer cell lines; format: cell-based; conditions: for Fold less potent than KPT-330 (antiproliferative IC50): all cell lines tested; for Antiproliferative activity, in words: panel of cancer cell lines
Protocol: as §2

[4] = tested on: Hap-1 cells; experiment: Cell proliferation assay (IncuCyte confluence), Hap-1; format: cell-based; conditions: Homo sapiens, HAP1; Hap-1 chronic myeloid leukemia; 72 h; mean of two independent experiments ± SEM; read-out: IC50 antiproliferative activity Hap-1
Protocol: as §1, §2

[5] = tested on: NCI-H460 cells; experiment: Cell proliferation assay (IncuCyte confluence), NCI-H460; format: cell-based; conditions: Homo sapiens; NCI-H460 lung carcinoma; 72 h; mean of two independent experiments ± SEM; read-out: IC50 antiproliferative activity NCI-H460
Protocol: as §1, §2

[6] = GSH reactivity assay (HPLC, DTNB quench); format: physicochemical; conditions: 500 µM compound, 5 mM GSH, 37 °C; for Reaction with GSH (hetero-Michael addition), qualitative: PBS pH 7.4 with EDTA:DMSO 1:1; for Reversibility of GSH adducts (retro-Michael), qualitative: longer incubation
Protocol: In order to determine if these chalcones could react with thiol groups through a hetero-Michael addition reaction, a few selected compounds (9, 10, 13 and 18) were incubated with glutathione (GSH). After different incubation times, the reactions were quenched by adding 5,5′-dithiobis(2-nitrobenzoic acid) (DTNB, Ellman´s reagent) (1:1 ratio with respect to the initial concentration of GSH). The course of the reaction was followed by HPLC, adapting reported procedures. […] Thus, although this assay is only qualitative, the tendency observed among these chalcones nicely fits the reactivity described for α-X-2´3,4,4´-tetramethylchalcones.
A 500 µM sample of the tested compound was incubated with 5 mM reduced L-glutathione for 24 h at 37 °C with a final volume of 200 μL. As a solvent system, 20 mM PBS buffer pH 7.4 with 2 mM EDTA:DMSO (1:1) was used. To perform the assay, stock solutions of 20 mM of the chalcones (9, 10, 13 and 18) and 15 mM of reduced L-glutathione were freshly prepared for every experiment and then diluted properly to give the final electrophile:nucleophile ratio (1:10). A 5 mM solution of 5,5′-dithiobis(2-nitrobenzoic acid) (DTNB) was prepared in the same solvent system to quench the reaction. After different time points (10 min, 1 h, 4 h and 24 h), an aliquot of 20 μL of the incubation mixture was quenched by adding 20 μL of the DTNB stock solution, mixed thoroughly, and then analyzed by HPLC. HPLC analysis was performed in Agilent 1120 compact LC, column ACE 5 C18-300 (15 cm × 4.6 mm); UV detection was performed at λ = 254 nm. Solvents used were acetonitrile for bottle A and H2O (containing 0.05% TFA) for bottle B, and the flow rate was 1mL/min. The gradients used were: (A) incubations with chalcone 9: from 10% to 80% of solvent A in 10 min; (B) incubations with chalcones 10 and 18: from 10% to 100% of solvent A in 10 min. The new peaks were analysed by LC-MS. As controls, a 500 μM solution of the α,β-unsaturated compound was also analysed, and a 5 mM reduced L-glutathione solution was quenched by adding DNTB at the same time points. In general, after 6 h of incubation, no GSH was detected.

[7] = tested on: K-562 cells; experiment: Cell proliferation assay (IncuCyte confluence), K-562; format: cell-based; conditions: Homo sapiens, K562; K-562 chronic myeloid leukemia; 72 h; mean of two independent experiments ± SEM; read-out: IC50 antiproliferative activity K-562
Protocol: as §1, §2

[8] = tested on: HL-60 cells; experiment: Cell proliferation assay (IncuCyte confluence), HL-60; format: cell-based; conditions: Homo sapiens; HL-60 acute myeloid leukemia; 72 h; mean of two independent experiments ± SEM; read-out: IC50 antiproliferative activity HL-60
Protocol: as §1, §2

[9] = tested on: HCT-116 cells; experiment: Cell proliferation assay (IncuCyte confluence), HCT-116; format: cell-based; conditions: Homo sapiens; HCT-116 colorectal carcinoma; 72 h; mean of two independent experiments ± SEM; read-out: IC50 antiproliferative activity HCT-116
Protocol: as §1, §2

T1 sequence (O14980 whole entry): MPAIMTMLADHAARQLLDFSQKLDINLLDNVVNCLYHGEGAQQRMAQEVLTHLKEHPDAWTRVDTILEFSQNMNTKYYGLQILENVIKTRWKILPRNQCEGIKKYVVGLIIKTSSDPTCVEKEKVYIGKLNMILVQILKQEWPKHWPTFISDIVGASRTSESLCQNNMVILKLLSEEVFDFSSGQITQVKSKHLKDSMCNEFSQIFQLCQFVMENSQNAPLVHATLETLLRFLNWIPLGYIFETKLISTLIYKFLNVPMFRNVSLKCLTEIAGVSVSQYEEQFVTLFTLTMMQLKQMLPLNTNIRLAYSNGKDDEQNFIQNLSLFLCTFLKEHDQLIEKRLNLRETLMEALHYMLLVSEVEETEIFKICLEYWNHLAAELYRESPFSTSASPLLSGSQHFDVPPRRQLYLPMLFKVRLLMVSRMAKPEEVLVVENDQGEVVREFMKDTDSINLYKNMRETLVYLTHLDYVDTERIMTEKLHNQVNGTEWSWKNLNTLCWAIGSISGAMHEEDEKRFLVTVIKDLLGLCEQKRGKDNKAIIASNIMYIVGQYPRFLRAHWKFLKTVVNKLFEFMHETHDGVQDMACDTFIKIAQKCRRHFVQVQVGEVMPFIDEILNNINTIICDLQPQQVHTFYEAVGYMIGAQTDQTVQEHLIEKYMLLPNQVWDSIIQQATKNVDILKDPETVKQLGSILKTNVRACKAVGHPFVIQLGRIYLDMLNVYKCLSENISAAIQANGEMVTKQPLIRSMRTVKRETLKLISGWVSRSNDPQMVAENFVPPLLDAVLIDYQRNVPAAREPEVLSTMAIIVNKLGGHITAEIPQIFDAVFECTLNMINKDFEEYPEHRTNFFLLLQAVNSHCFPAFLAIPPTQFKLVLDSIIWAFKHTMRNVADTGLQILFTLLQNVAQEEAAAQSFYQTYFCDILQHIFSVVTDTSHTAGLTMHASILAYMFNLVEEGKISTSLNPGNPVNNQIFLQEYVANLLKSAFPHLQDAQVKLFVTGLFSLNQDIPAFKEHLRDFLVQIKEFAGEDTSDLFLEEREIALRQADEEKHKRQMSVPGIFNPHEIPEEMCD

| IC50 [2] | Fold less potent than KPT-330 (antiproliferative IC50) [3] | IC50 [5] | Reaction with GSH (hetero-Michael addition), qualitative [6] | IC50 [7] | IC50 [8] | IC50 [9] | Compound | IC50 [1] | Antiproliferative activity, in words [3] | IC50 [4] | Reversibility of GSH adducts (retro-Michael), qualitative [6] |
| --- | --- | --- | --- | --- | --- | --- | --- | --- | --- | --- | --- |
| 2500 nM and 2460 nM | 5- to 30 fold | 2100 ± 100 nM | quickly reacted with GSH | 1800 ± 80 nM | 2000 ± 500 nM | 2400 ± 200 nM | O=C(/C=C/c1cncnc1)c1ccc2ccccc2c1 [Compound 9, (E)-1-(Naphthalen-2-yl)-3-(pyrimidin-5-yl)prop-2-en-1-one] | 2100 ± 500 nM | single digit µM IC50 values | 2300 ± 200 nM | underwent a retro-Michael addition reaction |
| 550 ± 190 nM | 5- to 30 fold | 3500 ± 1500 nM | quickly reacted with GSH | 7200 ± 1900 nM | 2200 ± 300 nM | 4700 ± 1700 nM | COc1cc(OC)cc(C(=O)/C=C/c2cncnc2)c1 [Compound 10, (E)-1-(3′,5′-Dimethoxyphenyl)-3-(pyrimidin-5′’-yl)prop-2-en-1-one] | 1500 ± 200 nM | single digit µM IC50 values | 2100 ± 200 nM | underwent a retro-Michael addition reaction |
